Reference: the supplement of paper PMC10307832

Key:
Assay in all cases: relative viability (nuclei count vs DMSO), 5 days (fraction); higher = more cells survive
[1] = compound: CN(C)C(=N)NC(=N)N [Metformin] + CC(C)C[C@H](NC(=O)[C@H](Cc1ccccc1)NC(=O)c1cnccn1)B(O)O [Bortezomib] (partner 0.002 µM)
Procedure, shortened: (§1)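 Five library-drug doses in √10 steps were combined with a fixed anchor-drug dose, or a single drug was given alone, by pin tool to lung cancer cell lines in 1536-well plates the day after seeding. Nuclei were stained and counted after 5 days. Relative viability is the nuclei count in treated wells over that in vehicle wells, taken as the median of duplicate plates.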

[2] = compound: CN(C)C(=N)NC(=N)N [Metformin] + CS(=O)(=O)CCNCc1ccc(-c2ccc3ncnc(Nc4ccc(OCc5cccc(F)c5)c(Cl)c4)c3c2)o1 [Lapatinib] (partner 2 µM)
Procedure, shortened: as §1

[3] = compound: CN(C)C(=N)NC(=N)N [Metformin] + Cc1cc(Nc2cc(N3CCN(C)CC3)nc(Sc3ccc(NC(=O)C4CC4)cc3)n2)n[nH]1 [Tozasertib] (partner 0.1 µM)
Procedure, shortened: as §1

[4] = compound: CN(C)C(=N)NC(=N)N [Metformin] + O=C(c1cc(Cc2n[nH]c(=O)c3ccccc23)ccc1F)N1CCN(C(=O)C2CC2)CC1 [Olaparib] (partner 8 µM)
Procedure, shortened: as §1

Cell Line | relative viability ([1]; first compound 10 µM) | relative viability ([1]; first compound 31.62 µM) | relative viability ([1]; first compound 100 µM) | relative viability ([1]; first compound 316.23 µM) | relative viability ([1]; first compound 1000 µM) | relative viability ([2]; first compound 10 µM) | relative viability ([2]; first compound 31.62 µM) | relative viability ([2]; first compound 100 µM) | relative viability ([2]; first compound 316.23 µM) | relative viability ([2]; first compound 1000 µM) | relative viability ([3]; first compound 10 µM) | relative viability ([3]; first compound 31.62 µM) | relative viability ([3]; first compound 100 µM) | relative viability ([3]; first compound 316.23 µM) | relative viability ([3]; first compound 1000 µM) | relative viability ([4]; first compound 10 µM) | relative viability ([4]; first compound 31.62 µM) | relative viability ([4]; first compound 100 µM) | relative viability ([4]; first compound 316.23 µM) | relative viability ([4]; first compound 1000 µM)
NCI-H650 | 0.989 | 1.12 | 0.781 | 0.782 | 1.18 | 1.22 | 1.04 | 0.887 | 0.799 | 0.942 | 0.831 | 0.8 | 0.973 | 0.48 | 0.919 | 0.315 | 0.296 | 0.396 | 0.316 | 0.368
HOP-62 | 0.602 | 0.745 | 0.209 | 0.723 | 0.816 | 0.725 | 1.05 | 0.891 | 0.777 | 1.05 | 0.283 | 0.373 | 0.316 | 0.285 | 0.289 | 0.189 | 0.2 | 0.189 | 0.251 | 0.221
LC-2-ad | – | 1.01 | 0.766 | 0.756 | 0.926 | – | 1.03 | 0.853 | 0.799 | 1 | – | 0.412 | 0.524 | 0.469 | 0.506 | – | 0.537 | 0.562 | 0.505 | 0.587
NCI-H2126 | 1 | 1.11 | 1.09 | 1.09 | 1.09 | 0.678 | 0.774 | 0.771 | 0.787 | 0.749 | 0.764 | 0.834 | 0.824 | 0.525 | 0.53 | 0.767 | 0.88 | 0.911 | 0.833 | 0.856
NCI-H1975 | 0.335 | 0.333 | 0.411 | 0.375 | 0.433 | 0.98 | 1.27 | 0.935 | 1.05 | 1.06 | 0.888 | 0.905 | 0.872 | 0.78 | 1.08 | 0.653 | 0.931 | 0.874 | 0.849 | 0.955
NCI-H1734 | 0.952 | 1.06 | 0.947 | 0.951 | 0.917 | 1.03 | 1.04 | 1.09 | 0.991 | 1.14 | 0.246 | 0.242 | 0.267 | 0.268 | 0.29 | 0.473 | 0.636 | 0.584 | 0.501 | 0.616
NCI-H727 | 1.05 | 0.756 | 1.02 | 0.774 | 0.934 | 0.863 | 0.917 | 0.615 | 0.728 | 0.884 | 0.564 | 0.821 | 0.606 | 0.501 | 0.637 | 0.641 | 0.599 | 0.582 | – | 0.577
LU99A | 0.96 | 1.06 | 0.988 | 0.903 | 1.04 | 0.92 | 0.904 | 0.837 | 0.864 | 0.985 | 0.234 | 0.246 | 0.253 | 0.235 | 0.236 | 0.203 | 0.251 | 0.202 | 0.232 | 0.241
LXF-289 | 0.943 | 0.904 | 0.893 | 0.933 | 1.01 | 0.812 | 0.879 | 0.879 | 0.843 | 0.887 | 0.191 | 0.179 | 0.206 | 0.174 | 0.19 | 0.929 | 0.922 | 0.829 | 0.917 | 0.93
UMC-11 | 0.56 | 0.914 | 0.791 | 0.694 | 0.618 | 0.899 | 1.04 | 1.1 | 0.973 | 1.17 | 0.211 | 0.188 | 0.202 | 0.2 | 0.209 | 0.337 | 0.269 | 0.31 | 0.332 | 0.276
NCI-H1650 | 0.208 | 0.206 | 0.232 | 0.231 | 0.231 | 0.699 | 0.844 | 0.949 | 0.707 | 0.648 | 0.433 | 0.443 | 0.496 | 0.442 | 0.364 | 0.687 | 0.625 | 0.763 | 0.682 | 0.59
NCI-H2405 | 0.55 | 1.01 | 0.972 | 0.924 | 0.613 | 0.932 | 1.13 | 1.01 | 1.07 | 0.556 | 0.701 | 0.732 | 0.801 | 0.763 | 0.716 | – | 0.905 | 0.813 | 0.635 | 0.506
